Measured values taken from patent EP2112155B1, “Hydrogensulfate salt of 2-acetoxy-5-(a-cyclopropylcarbonyl-2-fluorobenzyl)-4,5,6,7-tetrahydrothieno[3,2-c]pyridine and its preparation” (Sandoz AG, priority 2008, dated 2009).
Where a name gives a salt, the structure may show the parent alone.

Test: Solubility of various Prasugrel acid addition salts, determined according to European Pharmacopoeia 6.0, 5.11 (2008)
Assay type: physicochemical
Excerpt: As bioavailability depends, among others, on solubility, an optimal active substance for oral application should show a high solubility in a broad pH-range. […] Table 2: Solubility of various Prasugrel acid addition salts

## CC(=O)Oc1cc2c(s1)CCN(C(C(=O)C1CC1)c1ccccc1F)C2 (stereo not drawn) [Prasugrel hydrochloride]
Acetate buffer pH 4.5
  Solubility: insoluble
Hydrochloric acid medium pH 1.2
  Solubility: sparingly soluble
water
  Solubility: insoluble
